Experimental data published in patent US20250313572A1, “MACROCYCLIC MCL-1 INHIBITORS AND METHODS OF USE” (AbbVie Inc., priority 2017, published 2025).
Where two headings read alike, the source gives them in different places.

How the values were obtained:
GST-MCL-1 = GST-MCL-1 (Homo sapiens, UniProt Q07820); assay: TR-FRET MCL-1 binding assay (competition with probe F-Bak)
In short: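 Test compounds, 11 three-fold dilutions from 25 μM final, incubated 2 hours at room temperature with GST-MCL-1, F-Bak probe and Tb-anti-GST antibody. TR-FRET read at 340/35 nm excitation with 520/525 and 495/510 nm emission. Run without human serum and with 10% HS.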

[1] = system: AMO-1 human multiple myeloma tumor cell line; assay: AMO-1 cell viability assay (CellTiter-Glo, 24 hours); format: cell-based
[2] = system: NCI-H929 human multiple myeloma tumor cell line; assay: NCI-H929 cell viability assay (CellTiter-Glo, 24 hours); format: cell-based
[3] = MCL-1 Binding Ki (nM, 10% HS), in the presence of 10% HS (human serum)
[4] = without HS, read-out: MCL-1 Binding Ki
[5] = Homo sapiens, AMO1, 24 h, read-out: AMO-1 Viability IC50 (μM, 10% FBS), 10% FBS, 24 hours of compound treatment
[6] = Homo sapiens, NCI-H929, 24 h, read-out: H929 Viability IC50 (μM, 10% FBS), 10% FBS, 24 hours of compound treatment

GST-MCL-1, sequence (Q07820 whole entry): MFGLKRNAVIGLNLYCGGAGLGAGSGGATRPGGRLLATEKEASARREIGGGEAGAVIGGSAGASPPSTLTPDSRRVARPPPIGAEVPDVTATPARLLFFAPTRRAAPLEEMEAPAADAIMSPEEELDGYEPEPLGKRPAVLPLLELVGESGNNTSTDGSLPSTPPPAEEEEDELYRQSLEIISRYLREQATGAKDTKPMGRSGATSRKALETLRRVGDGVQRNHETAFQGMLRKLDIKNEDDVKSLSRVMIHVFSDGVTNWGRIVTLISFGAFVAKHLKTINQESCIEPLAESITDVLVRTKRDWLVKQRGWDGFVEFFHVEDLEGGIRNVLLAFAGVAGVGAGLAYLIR

| SMILES | Ki (GST-MCL-1; [3]) [nM] | Ki (GST-MCL-1; [4]) [nM] | IC50 [1, 5] [nM] | IC50 [2, 6] [µM] | IC50 ([1]; read-out: AMO-1 Viability IC50 (μM, 10% FBS), 10% FBS, 24 hours of compound treatment) [nM] | IC50 ([2]; read-out: H929 Viability IC50 (μM, 10% FBS), 10% FBS, 24 hours of compound treatment) [µM] | IC50 ([1]; Homo sapiens, AMO1, read-out: AMO-1 Viability IC50 (μM), 10% FBS, 24 hours of compound treatment) [nM] | IC50 ([2]; Homo sapiens, NCI-H929, read-out: H929 Viability IC50 (μM), 10% FBS, 24 hours of compound treatment) [µM] |
| --- | --- | --- | --- | --- | --- | --- | --- | --- |
| Cc1c2ccc(c1Cl)O[C@H](CN1CCN(C)CC1)COc1ccc(OCc3ccnc(-c4cccc(=O)n4C)n3)c(c1)C[C@H](C(=O)O)Oc1ncnc3sc(-c4ccc(F)cc4)c-2c13 [Example 28, (7R,16R)-19-chloro-1-(4-fluorophenyl)-20-methyl-10-{[2-(1-methyl-6-oxo-1,6-dihydropyridin-2-yl)pyrimidin-4-yl]methoxy}-16-[(4-methylpiperazin-1-yl)methyl]-7,8,15,16-tetrahydro-18,21-etheno-13,9-(metheno)-6,14,17-trioxa-2-thia-3,5-diazacyclononadeca[1,2,3-cd]indene-7-carboxylic Acid] | 0.027 | 0.021 | 2.69 | 0.00583 |  |  |  |  |
| COCCOCCOCCOCCOCCOCCOC1(c2nccc(COc3ccc4cc3C[C@H](C(=O)O)Oc3ncnc5sc(-c6ccc(F)cc6)c(c35)-c3c(C)c(Cl)c(c(Cl)c3C)O[C@H](CN3CCN(C)CC3)CO4)n2)CCCC1 [Example 74, (7R,16R)-19,23-dichloro-1-(4-fluorophenyl)-10-[(2-{1-[(2,5,8,11,14,17-hexaoxanonadecan-19-yl)oxy]cyclopentyl}pyrimidin-4-yl)methoxy]-20,22-dimethyl-16-[(4-methylpiperazin-1-yl)methyl]-7,8,15,16-tetrahydro-18,21-etheno-9,13-(metheno)-6,14,17-trioxa-2-thia-3,5-diazacyclononadeca[1,2,3-cd]indene-7-carboxylic Acid] | 0.12 | 0.083 | 1.53 | 0.00237 |  |  |  |  |
| CO[C@H]1O[C@H](COc2ccc(-c3nccc(COc4ccc5cc4C[C@H](C(=O)O)Oc4ncnc6sc(-c7ccc(F)cc7)c(c46)-c4ccc(c(Cl)c4C)O[C@H](CN4CCN(C)CC4)CO5)n3)cc2)[C@@H](O)[C@H](O)[C@@H]1O [Example 12, methyl 6-O-{4-[4-({[(7R,16R,21S)-7-carboxy-19-chloro-1-(4-fluorophenyl)-20-methyl-16-[(4-methylpiperazin-1-yl)methyl]-7,8,15,16-tetrahydro-18,21-etheno-13,9-(metheno)-6,14,17-trioxa-2-thia-3,5-diazacyclononadeca[1,2,3-cd]inden-10-yl]oxy}methyl)pyrimidin-2-yl]phenyl}-a-D-mannopyranoside] | 0.227 | 0.603 | 18.7 | 0.0316 |  |  |  |  |
| Cc1c(Cl)c2c(Cl)c(C)c1-c1c(-c3ccc(F)cc3)sc3ncnc(c13)O[C@@H](C(=O)O)Cc1cc(ccc1OCc1ccnc(-c3ccc(CCN4CCOCC4)cc3)n1)OC[C@@H](CN1CCN(C)CC1)O2 [Example 142, (7R,16R)-19,23-dichloro-1-(4-fluorophenyl)-20,22-dimethyl-16-[(4-methylpiperazin-1-yl)methyl]-10-[(2-{4-[2-(morpholin-4-yl)ethyl]phenyl}pyrimidin-4-yl)methoxy]-7,8,15,16-tetrahydro-18,21-etheno-13,9-(metheno)-6,14,17-trioxa-2-thia-3,5-diazacyclononadeca[1,2,3-cd]indene-7-carboxylic Acid] | 0.776 | 0.185 | 0.0488 | 0.000156 |  |  |  |  |
| COCCOCCOCCOC[C@@H]1CN(c2nccc(COc3ccc4cc3C[C@H](C(=O)O)Oc3ncnc5sc(-c6ccc(F)cc6)c(c35)-c3c(C)c(Cl)c(c(Cl)c3C)O[C@H](CN3CCN(C)CC3)CO4)n2)CCO1 [Example 68, (7R,16R)-19,23-dichloro-1-(4-fluorophenyl)-20,22-dimethyl-16-[(4-methylpiperazin-1-yl)methyl]-10-({2-[(2S)-2-(2,5,8,11-tetraoxadodecan-1-yl)morpholin-4-yl]pyrimidin-4-yl}methoxy)-7,8,15,16-tetrahydro-18,21-etheno-13,9-(metheno)-6,14,17-trioxa-2-thia-3,5-diazacyclononadeca[1,2,3-cd]indene-7-carboxylic Acid] | 0.209 | 0.031 | 0.426 | 0.000938 |  |  |  |  |
| COCCOCCOCCOCC1(F)CC=C(c2nccc(COc3ccc4cc3C[C@H](C(=O)O)Oc3ncnc5sc(-c6ccc(F)cc6)c(c35)-c3c(C)c(Cl)c(c(Cl)c3C)O[C@H](CN3CCN(C)CC3)CO4)n2)CC1 (single isomer, unassigned) [Example 111, (7R,16R)-19,23-dichloro-1-(4-fluorophenyl)-10-({2-[(4R*)-4-fluoro-4-(2,5,8,11-tetraoxadodecan-1-yl)cyclohex-1-en-1-yl]pyrimidin-4-yl}methoxy)-20,22-dimethyl-16-[(4-methylpiperazin-1-yl)methyl]-7,8,15,16-tetrahydro-18,21-etheno-13,9-(metheno)-6,14,17-trioxa-2-thia-3,5-diazacyclononadeca[1,2,3-cd]indene-7-carboxylic Acid] | 0.101 | 0.014 |  |  | 0.161 | 0.000298 |  |  |
| Cc1c(Cl)c2c(Cl)c(C)c1-c1c(-c3ccc(F)cc3)sc3ncnc(c13)O[C@@H](C(=O)O)Cc1cc(ccc1OCc1ccnc(-c3cccc(S(=O)(=O)N4CCOCC4)c3)n1)OC[C@@H](CN1CCN(C)CC1)O2 [Example 149, (7R,16R)-19,23-dichloro-1-(4-fluorophenyl)-20,22-dimethyl-16-[(4-methylpiperazin-1-yl)methyl]-10-({2-[3-(morpholine-4-sulfonyl)phenyl]pyrimidin-4-yl}methoxy)-7,8,15,16-tetrahydro-18,21-etheno-13,9-(metheno)-6,14,17-trioxa-2-thia-3,5-diazacyclononadeca[1,2,3-cd]indene-7-carboxylic Acid] | 0.14 | 0.006 | 0.363 | 0.0014 |  |  |  |  |
| Cc1c(Cl)c2c(Cl)c(C)c1-c1c(-c3ccc(F)cc3)sc3ncnc(c13)O[C@@H](C(=O)O)Cc1cc(ccc1OCc1ccnc(-c3cccc(CP(C)(C)=O)c3)n1)OC[C@@H](CN1CCN(C)CC1)O2 [Example 51, (7R,16R)-19,23-dichloro-10-[(2-{3-[(dimethylphosphoryl)methyl]phenyl}pyrimidin-4-yl)methoxy]-1-(4-fluorophenyl)-20,22-dimethyl-16-[(4-methylpiperazin-1-yl)methyl]-7,8,15,16-tetrahydro-18,21-etheno-13,9-(metheno)-6,14,17-trioxa-2-thia-3,5-diazacyclononadeca[1,2,3-cd]indene-7-carboxylic Acid] | 0.076 | 0.011 | 3.4 | 0.00671 |  |  |  |  |
| Cc1c(Cl)c2c(Cl)c(C)c1-c1c(-c3ccc(F)cc3)sc3ncnc(c13)O[C@@H](C(=O)O)Cc1cc(ccc1OCc1ccnc(-c3ccc(OC(=O)N4CCOCC4)cc3)n1)OC[C@@H](CN1CCN(C)CC1)O2 [Example 151, (7R,16R)-19,23-dichloro-1-(4-fluorophenyl)-20,22-dimethyl-16-[(4-methylpiperazin-1-yl)methyl]-10-[(2-{4-[(morpholine-4-carbonyl)oxy]phenyl}pyrimidin-4-yl)methoxy]-7,8,15,16-tetrahydro-18,21-etheno-9,13-(metheno)-6,14,17-trioxa-2-thia-3,5-diazacyclononadeca[1,2,3-cd]indene-7-carboxylic Acid] | 0.325 | 0.01 |  |  |  |  | 0.303 | 0.000735 |
